Test results reported in paper PMC9798004 (Frontiers in Psychiatry, 2022).

Experiments:
Assay in all cases: PathHunter β-arrestin assay
Format in all cases: cell-based
GPR119 = target: T1, GPR119 (Homo sapiens, UniProt Q8TDV5); details: antagonist mode, 30 μM
T1 construct: purchased Eurofins DiscoverX (PathHunter gpcrMAX)
T1 sequence (Q8TDV5 1-335): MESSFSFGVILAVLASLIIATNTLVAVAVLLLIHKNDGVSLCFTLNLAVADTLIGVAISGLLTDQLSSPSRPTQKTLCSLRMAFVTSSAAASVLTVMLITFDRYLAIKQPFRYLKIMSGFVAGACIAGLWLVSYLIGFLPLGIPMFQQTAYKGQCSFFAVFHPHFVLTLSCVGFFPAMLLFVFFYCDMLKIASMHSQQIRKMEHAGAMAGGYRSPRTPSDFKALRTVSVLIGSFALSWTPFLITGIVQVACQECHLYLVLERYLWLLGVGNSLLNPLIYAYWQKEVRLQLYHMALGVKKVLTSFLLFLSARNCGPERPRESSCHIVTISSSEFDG

CCR10 = target: T2, CCR10 (Homo sapiens, UniProt P46092); details: antagonist mode vs EC80 of control agonist, 10-point curve
T2 sequence (P46092 1-362): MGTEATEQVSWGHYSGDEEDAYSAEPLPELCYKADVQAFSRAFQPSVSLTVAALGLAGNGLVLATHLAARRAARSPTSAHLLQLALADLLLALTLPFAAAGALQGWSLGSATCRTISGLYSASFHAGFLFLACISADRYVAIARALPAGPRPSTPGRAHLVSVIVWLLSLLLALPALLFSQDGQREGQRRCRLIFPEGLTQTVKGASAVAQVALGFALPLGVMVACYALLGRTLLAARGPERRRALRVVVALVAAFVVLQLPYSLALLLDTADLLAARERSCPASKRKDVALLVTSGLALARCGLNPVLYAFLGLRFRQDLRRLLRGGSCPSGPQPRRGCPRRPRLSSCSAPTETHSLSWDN
Procedure, shortened: (§1)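 Hits with >5-fold difference between S/N and CoV were followed up with 10-point concentration-response curves (1.5–30 μM) in technical replicate. Antagonist mode used the EC80 of the relevant agonist. RC50 came from a four-parameter fit on normalized data.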

CCR6 = target: T3, CCR6 (Homo sapiens, UniProt P51684); details: antagonist mode, up to 30 μM
T3 construct: purchased Eurofins DiscoverX (PathHunter gpcrMAX)
T3 sequence (P51684 1-374): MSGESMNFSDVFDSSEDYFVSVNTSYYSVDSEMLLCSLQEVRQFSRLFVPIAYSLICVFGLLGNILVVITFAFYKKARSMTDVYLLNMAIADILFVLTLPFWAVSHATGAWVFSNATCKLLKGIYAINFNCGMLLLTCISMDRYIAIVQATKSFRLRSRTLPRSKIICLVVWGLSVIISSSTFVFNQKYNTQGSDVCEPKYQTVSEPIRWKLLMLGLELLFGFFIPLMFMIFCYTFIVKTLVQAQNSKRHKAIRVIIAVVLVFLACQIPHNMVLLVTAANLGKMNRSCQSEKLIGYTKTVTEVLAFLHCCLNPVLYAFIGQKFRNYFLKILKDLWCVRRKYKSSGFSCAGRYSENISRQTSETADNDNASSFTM

CCR8 = CCR8 (Homo sapiens, UniProt P51685); details: antagonist mode vs EC80 of control agonist, 10-point curve
GLP2R = target: T4, GLP2R (Homo sapiens, UniProt O95838); details: antagonist mode vs EC80 of control agonist, 10-point curve
T4 sequence (O95838 1-553): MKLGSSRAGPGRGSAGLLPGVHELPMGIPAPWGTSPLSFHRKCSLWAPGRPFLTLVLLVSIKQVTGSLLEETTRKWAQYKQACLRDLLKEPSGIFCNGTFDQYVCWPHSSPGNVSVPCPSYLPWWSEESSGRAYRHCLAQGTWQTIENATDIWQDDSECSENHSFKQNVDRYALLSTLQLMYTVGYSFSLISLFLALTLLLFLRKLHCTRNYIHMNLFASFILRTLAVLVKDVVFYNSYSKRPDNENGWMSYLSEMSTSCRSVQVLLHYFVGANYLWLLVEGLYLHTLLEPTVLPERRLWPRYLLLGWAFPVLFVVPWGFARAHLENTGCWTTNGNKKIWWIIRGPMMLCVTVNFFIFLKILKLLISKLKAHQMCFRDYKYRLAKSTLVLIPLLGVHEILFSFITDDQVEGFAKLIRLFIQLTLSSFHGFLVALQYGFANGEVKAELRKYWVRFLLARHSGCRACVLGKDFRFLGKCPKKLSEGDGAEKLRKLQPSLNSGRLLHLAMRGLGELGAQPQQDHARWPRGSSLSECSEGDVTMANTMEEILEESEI
Procedure, shortened: as §1

HCRTR1 = target: T5, HCRTR1 (Homo sapiens, UniProt O43613)
T5 sequence (O43613 1-425): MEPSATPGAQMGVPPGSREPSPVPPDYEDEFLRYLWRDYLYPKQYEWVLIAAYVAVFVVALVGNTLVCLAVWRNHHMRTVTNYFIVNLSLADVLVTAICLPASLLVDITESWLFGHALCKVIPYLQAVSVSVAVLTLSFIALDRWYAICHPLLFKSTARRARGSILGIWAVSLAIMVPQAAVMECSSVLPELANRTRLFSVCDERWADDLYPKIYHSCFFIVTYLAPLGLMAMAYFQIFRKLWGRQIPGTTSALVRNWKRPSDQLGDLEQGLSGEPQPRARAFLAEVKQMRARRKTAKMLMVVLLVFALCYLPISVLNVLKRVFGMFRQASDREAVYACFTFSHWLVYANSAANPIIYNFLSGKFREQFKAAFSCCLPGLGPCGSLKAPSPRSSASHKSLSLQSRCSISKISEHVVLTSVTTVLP

P2RY6 = P2RY6 (Homo sapiens, UniProt Q15077); details: antagonist mode, up to 30 μM
PTGER4 = PTGER4 (Homo sapiens, UniProt P35408); details: antagonist mode vs EC80 of control agonist, 10-point curve
HRH2 = HRH2 (Homo sapiens, UniProt P25021); details: antagonist mode vs EC80 of control agonist, 10-point curve
MC4R = MC4R (Homo sapiens, UniProt P32245); details: antagonist mode vs EC80 of control agonist, 10-point curve
Chain of MC4R (P32245 whole entry): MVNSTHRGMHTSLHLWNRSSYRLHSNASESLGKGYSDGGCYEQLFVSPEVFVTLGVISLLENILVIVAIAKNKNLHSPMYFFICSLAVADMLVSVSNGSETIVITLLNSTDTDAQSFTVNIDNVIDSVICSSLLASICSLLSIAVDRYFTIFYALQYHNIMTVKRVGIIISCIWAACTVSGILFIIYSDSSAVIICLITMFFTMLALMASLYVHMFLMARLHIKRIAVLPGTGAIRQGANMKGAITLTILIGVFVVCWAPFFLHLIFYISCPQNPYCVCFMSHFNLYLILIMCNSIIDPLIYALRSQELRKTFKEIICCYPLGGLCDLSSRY

Chain of P2RY6 (Q15077 whole entry): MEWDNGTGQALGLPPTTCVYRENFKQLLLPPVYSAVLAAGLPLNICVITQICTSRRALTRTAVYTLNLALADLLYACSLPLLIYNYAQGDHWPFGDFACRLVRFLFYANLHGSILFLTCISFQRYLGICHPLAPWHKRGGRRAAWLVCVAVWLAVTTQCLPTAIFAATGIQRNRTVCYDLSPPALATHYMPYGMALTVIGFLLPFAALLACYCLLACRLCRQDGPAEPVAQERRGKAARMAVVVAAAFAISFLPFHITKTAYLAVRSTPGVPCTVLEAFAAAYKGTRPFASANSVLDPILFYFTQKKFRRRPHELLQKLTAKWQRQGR
Chain of CCR8 (P51685 whole entry): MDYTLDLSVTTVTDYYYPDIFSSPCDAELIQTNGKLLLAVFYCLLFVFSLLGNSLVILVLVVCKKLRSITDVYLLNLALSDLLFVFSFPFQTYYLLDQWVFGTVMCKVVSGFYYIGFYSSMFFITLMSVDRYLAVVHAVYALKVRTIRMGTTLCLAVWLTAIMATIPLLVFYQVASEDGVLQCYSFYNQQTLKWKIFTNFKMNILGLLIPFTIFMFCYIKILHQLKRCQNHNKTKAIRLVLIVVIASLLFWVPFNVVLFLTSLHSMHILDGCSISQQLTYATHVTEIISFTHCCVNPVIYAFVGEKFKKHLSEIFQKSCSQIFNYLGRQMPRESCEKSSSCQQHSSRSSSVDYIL
Chain of HRH2 (P25021 whole entry): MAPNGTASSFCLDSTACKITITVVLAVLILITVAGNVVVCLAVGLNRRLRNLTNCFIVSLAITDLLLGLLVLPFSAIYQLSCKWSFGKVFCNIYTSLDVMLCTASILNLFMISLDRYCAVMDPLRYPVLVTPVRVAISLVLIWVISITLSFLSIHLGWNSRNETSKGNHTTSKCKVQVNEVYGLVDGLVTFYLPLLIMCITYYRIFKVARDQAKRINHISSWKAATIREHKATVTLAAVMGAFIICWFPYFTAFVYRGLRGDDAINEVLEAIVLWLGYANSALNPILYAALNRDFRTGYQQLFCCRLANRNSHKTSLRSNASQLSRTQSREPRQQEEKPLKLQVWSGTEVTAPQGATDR
Chain of PTGER4 (P35408 whole entry): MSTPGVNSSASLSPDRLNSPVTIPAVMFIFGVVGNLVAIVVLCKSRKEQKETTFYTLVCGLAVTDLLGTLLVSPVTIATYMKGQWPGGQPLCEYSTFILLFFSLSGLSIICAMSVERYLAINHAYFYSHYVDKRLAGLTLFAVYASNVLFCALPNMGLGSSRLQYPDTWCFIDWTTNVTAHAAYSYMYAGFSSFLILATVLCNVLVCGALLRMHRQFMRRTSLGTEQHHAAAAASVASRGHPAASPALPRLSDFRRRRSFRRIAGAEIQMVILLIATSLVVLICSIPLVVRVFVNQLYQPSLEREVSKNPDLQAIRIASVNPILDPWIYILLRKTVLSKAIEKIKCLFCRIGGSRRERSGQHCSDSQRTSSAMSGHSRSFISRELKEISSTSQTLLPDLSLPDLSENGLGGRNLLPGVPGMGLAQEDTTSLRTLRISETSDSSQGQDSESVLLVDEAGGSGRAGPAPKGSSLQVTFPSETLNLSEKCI

## COC(=O)[C@@H](NC(=O)c1nn(Cc2ccc(F)cc2)c2ccccc12)C(C)C [AMB-FUBINACA]
GPR119
  inhibition in single-point screen: inhibited to the greatest extent of any antagonist mode target
CCR10
  IC50: 12.3 µM
CCR6
  inhibitory activity in concentration-response: Activity was only observed at the highest concentration (30 μM)
CCR8
  IC50: 7.99 µM
GLP2R
  IC50: 13.1 µM
HCRTR1; antagonist mode vs EC80 of control agonist, 10-point curve
  IC50: 8.59 µM
HCRTR1; antagonist mode, concentration-response up to 30 μM
  maximum inhibition: 73.00%
P2RY6
  inhibitory activity in concentration-response: Activity was only observed at the highest concentration (30 μM)
PTGER4
  IC50: 3.13 µM
HRH2
  IC50: 13.1 µM
MC4R
  IC50: 5.85 µM
